Paper PMC12340637, “Transport of Small Aliphatic Amines by Polyspecific Solute Carriers: Deciphering Structure–Function Relationships” (ACS Pharmacology & Translational Science, 2025)
Where two headings read alike, the source gives them in different places. Marks after values point to notes of the source that are not given here.

Legend:
OCT1 (SLC22A1) = biological target: T1, OCT1 (SLC22A1) (Homo sapiens, UniProt O15245); test: Cellular uptake into OCT1-overexpressing HEK293 cells vs EV control cells (HPLC-MS/MS); settings: for uptake ratio OCT1 (transporter-overexpressing cells over EV control cells): mean (±SD, N): 2 min, HEK293; for K m (±SEM) / v max (±SEM): OCT1, net uptake, Michaelis–Menten
T1 sequence (O15245 1-554): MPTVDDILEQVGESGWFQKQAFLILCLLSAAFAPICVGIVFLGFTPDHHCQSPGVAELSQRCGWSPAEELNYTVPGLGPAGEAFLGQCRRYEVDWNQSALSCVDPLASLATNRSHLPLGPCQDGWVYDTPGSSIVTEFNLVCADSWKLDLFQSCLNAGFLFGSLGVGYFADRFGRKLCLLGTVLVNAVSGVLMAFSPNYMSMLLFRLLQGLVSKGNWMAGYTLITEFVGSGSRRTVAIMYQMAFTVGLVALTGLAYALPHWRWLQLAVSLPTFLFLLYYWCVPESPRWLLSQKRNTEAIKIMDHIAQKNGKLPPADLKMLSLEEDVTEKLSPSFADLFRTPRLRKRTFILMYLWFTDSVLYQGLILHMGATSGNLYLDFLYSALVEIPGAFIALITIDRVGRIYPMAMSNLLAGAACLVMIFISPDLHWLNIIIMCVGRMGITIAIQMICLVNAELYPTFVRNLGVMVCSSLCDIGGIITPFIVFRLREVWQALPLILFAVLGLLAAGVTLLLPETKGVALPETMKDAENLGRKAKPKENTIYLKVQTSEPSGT

OCT2 (SLC22A2) = biological target: T2, OCT2 (SLC22A2) (Homo sapiens, UniProt O15244); test: Cellular uptake into OCT2-overexpressing HEK293 cells vs EV control cells (HPLC-MS/MS); settings: for uptake ratio OCT2 (transporter-overexpressing cells over EV control cells): mean (±SD, N): 2 min, HEK293; for K m (±SEM) / v max (±SEM): OCT2, net uptake, Michaelis–Menten; for substrate activity at OCT2 (in words): uptake ratio ≥2 = notable transport
T2 sequence (O15244 1-555): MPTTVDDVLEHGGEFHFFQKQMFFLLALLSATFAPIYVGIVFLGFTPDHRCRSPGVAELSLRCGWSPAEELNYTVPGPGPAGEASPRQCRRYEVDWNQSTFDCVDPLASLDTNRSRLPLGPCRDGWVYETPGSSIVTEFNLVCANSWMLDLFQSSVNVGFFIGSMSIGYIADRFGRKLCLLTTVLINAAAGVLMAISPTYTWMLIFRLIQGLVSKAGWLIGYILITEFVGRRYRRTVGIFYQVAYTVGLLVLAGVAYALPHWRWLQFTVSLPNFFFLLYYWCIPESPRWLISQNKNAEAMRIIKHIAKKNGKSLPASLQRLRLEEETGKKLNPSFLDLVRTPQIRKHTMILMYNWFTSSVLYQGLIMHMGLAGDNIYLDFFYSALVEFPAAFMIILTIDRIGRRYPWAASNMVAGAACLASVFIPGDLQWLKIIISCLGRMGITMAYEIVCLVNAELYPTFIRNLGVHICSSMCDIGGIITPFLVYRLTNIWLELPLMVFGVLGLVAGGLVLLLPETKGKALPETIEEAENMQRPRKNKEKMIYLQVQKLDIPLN

OCT3 (SLC22A3) = biological target: T3, OCT3 (SLC22A3) (Homo sapiens, UniProt O75751); test: Cellular uptake into OCT3-overexpressing HEK293 cells vs EV control cells (HPLC-MS/MS); settings: for uptake ratio OCT3 (transporter-overexpressing cells over EV control cells): mean (±SD, N): 2 min, HEK293; for K m (±SEM) / v max (±SEM): OCT3, net uptake, Michaelis–Menten
T3 sequence (O75751 1-556): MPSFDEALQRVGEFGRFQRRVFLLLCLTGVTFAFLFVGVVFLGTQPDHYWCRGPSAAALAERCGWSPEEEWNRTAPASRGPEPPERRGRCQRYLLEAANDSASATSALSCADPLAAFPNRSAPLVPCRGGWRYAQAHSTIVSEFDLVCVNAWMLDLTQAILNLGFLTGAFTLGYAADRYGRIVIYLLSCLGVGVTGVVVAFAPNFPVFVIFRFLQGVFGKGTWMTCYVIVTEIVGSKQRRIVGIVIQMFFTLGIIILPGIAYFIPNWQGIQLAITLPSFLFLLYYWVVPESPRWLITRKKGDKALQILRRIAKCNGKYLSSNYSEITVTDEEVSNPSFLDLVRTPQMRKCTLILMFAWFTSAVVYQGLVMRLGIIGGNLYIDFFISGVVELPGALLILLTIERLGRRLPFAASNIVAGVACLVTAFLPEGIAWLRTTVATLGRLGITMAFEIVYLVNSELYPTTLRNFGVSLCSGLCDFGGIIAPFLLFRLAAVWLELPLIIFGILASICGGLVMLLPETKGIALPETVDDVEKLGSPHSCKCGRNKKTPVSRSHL

MATE1 (SLC47A1) = biological target: T4, MATE1 (SLC47A1) (Homo sapiens, UniProt Q96FL8); test: Cellular uptake into MATE1-overexpressing HEK293 cells vs EV control cells (HPLC-MS/MS); settings: for uptake ratio MATE1 (transporter-overexpressing cells over EV control cells): mean (±SD, N): 2.5 μM substrate, 1 min, 30 mM NH4Cl preincubation, HEK293; for K m (±SEM) / v max (±SEM): MATE1, net uptake, Michaelis–Menten; for substrate activity at MATE1 (in words): uptake ratio ≥2 = notable transport
T4 sequence (Q96FL8 1-570): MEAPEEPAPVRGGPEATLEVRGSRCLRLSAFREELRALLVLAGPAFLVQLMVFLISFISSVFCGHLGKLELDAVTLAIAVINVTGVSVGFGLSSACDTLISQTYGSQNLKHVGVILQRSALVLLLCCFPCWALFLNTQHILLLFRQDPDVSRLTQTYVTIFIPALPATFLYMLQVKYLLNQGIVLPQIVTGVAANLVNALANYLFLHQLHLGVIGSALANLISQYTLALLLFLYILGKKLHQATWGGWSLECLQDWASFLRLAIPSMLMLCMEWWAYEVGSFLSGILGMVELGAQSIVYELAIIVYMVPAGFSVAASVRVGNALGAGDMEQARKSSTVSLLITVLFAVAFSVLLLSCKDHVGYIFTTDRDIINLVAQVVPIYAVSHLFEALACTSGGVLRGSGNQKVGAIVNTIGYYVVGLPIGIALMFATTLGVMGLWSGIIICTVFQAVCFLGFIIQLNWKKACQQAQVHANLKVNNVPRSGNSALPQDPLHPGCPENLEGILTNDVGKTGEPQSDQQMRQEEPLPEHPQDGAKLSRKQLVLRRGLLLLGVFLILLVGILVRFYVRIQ

MATE2-K (SLC47A2) = MATE2-K (SLC47A2) (Homo sapiens, UniProt Q86VL8); test: Cellular uptake into MATE2-K-overexpressing HEK293 cells vs EV control cells (HPLC-MS/MS); settings: for uptake ratio MATE2K (transporter-overexpressing cells over EV control cells): mean (±SD, N): 2.5 μM substrate, 1 min, 30 mM NH4Cl preincubation, HEK293
[1] = uptake ratio ≥2 = notable transport

MATE2-K (SLC47A2), sequence (Q86VL8 1-566 isoform Q86VL8-3): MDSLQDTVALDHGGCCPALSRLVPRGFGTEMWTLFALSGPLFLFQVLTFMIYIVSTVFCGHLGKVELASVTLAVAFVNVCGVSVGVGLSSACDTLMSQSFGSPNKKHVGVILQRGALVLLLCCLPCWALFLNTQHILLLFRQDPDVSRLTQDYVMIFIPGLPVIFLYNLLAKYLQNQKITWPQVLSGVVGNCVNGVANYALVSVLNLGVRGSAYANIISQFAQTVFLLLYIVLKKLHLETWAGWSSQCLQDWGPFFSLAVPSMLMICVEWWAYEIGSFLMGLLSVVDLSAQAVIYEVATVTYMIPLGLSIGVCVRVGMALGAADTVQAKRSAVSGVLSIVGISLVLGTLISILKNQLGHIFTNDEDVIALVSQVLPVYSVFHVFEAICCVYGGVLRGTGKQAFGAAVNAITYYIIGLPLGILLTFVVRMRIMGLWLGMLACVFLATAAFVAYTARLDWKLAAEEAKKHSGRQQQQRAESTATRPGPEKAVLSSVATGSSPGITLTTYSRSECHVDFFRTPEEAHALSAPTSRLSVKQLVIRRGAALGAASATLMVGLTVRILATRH

| SMILES | uptake ratio OCT2 (transporter-overexpressing cells over EV control cells): mean (±SD, N) (OCT2 (SLC22A2); 10 μM substrate) | K m (±SEM) (OCT2 (SLC22A2)) | v max (±SEM) (OCT2 (SLC22A2)) | uptake ratio OCT3 (transporter-overexpressing cells over EV control cells): mean (±SD, N) (OCT3 (SLC22A3); 10 μM substrate) | uptake ratio MATE1 (transporter-overexpressing cells over EV control cells): mean (±SD, N) (MATE1 (SLC47A1)) | uptake ratio MATE2K (transporter-overexpressing cells over EV control cells): mean (±SD, N) (MATE2-K (SLC47A2)) | also measured |
| --- | --- | --- | --- | --- | --- | --- | --- |
| NCC(O)CN [1,3-diamino-2-propanol] | 3.7 (2.4, 3) | 65 (±91) μM | 110 (±56) pmol/mg protein/min | 1.6 (0.3, 3) | 1.1 (0.1, 3) | 0.8 (0.1, 3) | uptake ratio OCT1 (transporter-overexpressing cells over EV control cells): mean (±SD, N) (OCT1 (SLC22A1); 10 μM substrate): 1.4 (0.6, 5) |
| CCN(CC)CCO [2-(diethylamino)ethanol] | 4.0 (1.5, 3) | – | 794 (±109) pmol/mg protein/min | 1.2 (0.1, 3) | 1 (0.13, 3) | 1.4 (0.2, 3) | – |
| CN(CCCN)CCCN [3,3′-diamino-N-methyldipropylamin] | – | – | – | – | – | – | substrate activity at OCT1 (in words) (OCT1 (SLC22A1)): did not show any substrate activity; substrate activity at OCT3 (in words) (OCT3 (SLC22A3)): did not show any substrate activity; substrate activity at MATE2-K (in words) (MATE2-K (SLC47A2)): did not show any substrate activity |
| CNCCCO [3-methylamino-1-propanol] | 2.6 (1.0, 4) ^a | – | – | 1.0 (0.2, 3) | 0.8 (0.2, 4) | 1.1 (0.4, 4) | uptake ratio OCT1 (transporter-overexpressing cells over EV control cells): mean (±SD, N) (OCT1 (SLC22A1); 10 μM substrate): 1.2 (0.2, 3) |
| NCCCCO [4-amino-1-butanol] | – | 1243 (±938) μM | 3103 (±1458) pmol/mg protein/min | – | 1.0 (0.01, 3) | 0.9 (0.3, 3) | uptake ratio OCT1 (transporter-overexpressing cells over EV control cells): mean (±SD, N) (OCT1 (SLC22A1); 2.5 μM substrate (§)): 1.1 (0.3, 3); uptake ratio OCT2 (transporter-overexpressing cells over EV control cells): mean (±SD, N) (OCT2 (SLC22A2); 2.5 μM substrate (§)): 5.4 (1.1, 3) ^a; uptake ratio OCT3 (transporter-overexpressing cells over EV control cells): mean (±SD, N) (OCT3 (SLC22A3); 2.5 μM substrate (§)): 1.1 (0.3, 3) |
| NCCCCCO [5-amino-1-pentanol] | – | 1260 (±452) μM | 14,996 (±2181) pmol/mg protein/min | – | – | 1.2 (0.6, 5) | K m (±SEM) (OCT1 (SLC22A1)): 132 (±121) μM; v max (±SEM) (OCT1 (SLC22A1)): 135 (±37) pmol/mg protein/min; substrate activity at OCT1 (in words) (OCT1 (SLC22A1); [1]): notable transport; substrate activity at OCT2 (in words) (OCT2 (SLC22A2)): notable transport; K m (±SEM) (OCT3 (SLC22A3)): 5776 (±2458) μM; v max (±SEM) (OCT3 (SLC22A3)): 5271 (±1641) pmol/mg protein/min; substrate activity at OCT3 (in words) (OCT3 (SLC22A3); [1]): notable transport; K m (±SEM) (MATE1 (SLC47A1)): 1040 (±451) μM; v max (±SEM) (MATE1 (SLC47A1)): 10,761 (±2694) pmol/mg protein/min; substrate activity at MATE1 (in words) (MATE1 (SLC47A1)): notable transport |
| NCCCCCCO [6-amino-1-hexanol] | – | 1176 (±273) μM | 16,933 (±2577) pmol/mg protein/min | – | – | 1.4 (0.3, 3) | K m (±SEM) (OCT1 (SLC22A1)): 487 (±171) μM; v max (±SEM) (OCT1 (SLC22A1)): 1656 (±294) pmol/mg protein/min; substrate activity at OCT1 (in words) (OCT1 (SLC22A1); [1]): notable transport; substrate activity at OCT2 (in words) (OCT2 (SLC22A2)): notable transport; K m (±SEM) (OCT3 (SLC22A3)): 1168 (±151) μM; v max (±SEM) (OCT3 (SLC22A3)): 4675 (±384) pmol/mg protein/min; substrate activity at OCT3 (in words) (OCT3 (SLC22A3); [1]): notable transport; K m (±SEM) (MATE1 (SLC47A1)): 253 (±47) μM; v max (±SEM) (MATE1 (SLC47A1)): 14,115 (±1479) pmol/mg protein/min; substrate activity at MATE1 (in words) (MATE1 (SLC47A1)): notable transport |
| C[C@H](N)CCO [(S)-3-aminobutan-1-ol] | – | – | – | – | – | – | stereoselectivity OCT3 (uptake ratio of the more strongly transported enantiomer divided by that of the other) (OCT3 (SLC22A3); label = favoured enantiomer): 1.2-fold for (S) |
| CCCCN [butylamine] | 6.4 (2.0, 5) ^b | – | – | 1.5 (1.0, 5) | 1.0 (0.1, 4) | 1.2 (0.3, 4) | – |
| CC(C)N [isopropylamine] | 5.3 (1.7, 3) ^a | – | – | 1.0 (0.2, 3) | 1.4 (0.2, 3) | – | uptake ratio OCT1 (transporter-overexpressing cells over EV control cells): mean (±SD, N) (OCT1 (SLC22A1); 10 μM substrate): 1.3 (0.2, 3) |
| NCCCCNCCCN [spermidine-(butyl-d8)] | – | – | – | – | 1.0 (0.4, 3) | 0.8 (0.1, 3) | – |
| CC(C)(C)N [tert-butylamine] | 3.8 (1.6, 4) ^a | – | – | 1.3 (0.5, 3) | 1.3 (0.3, 3) | 1.0 (0.2, 3) | – |
| NCCN(CCN)CCN [tris(2-aminoethyl)amine] | – | – | – | – | – | – | substrate activity at OCT3 (in words) (OCT3 (SLC22A3); [1]): did not show any substrate activity |
